Source: patent publication US10782295B2, “Cysteine-reactive ligand discovery in proteomes” (THE SCRIPPS RESEARCH INSTITUTE, priority 2013, dated 2020)

Key:
Assay in all cases: competitive isoTOP-ABPP, MDA-MB-231 soluble proteome
Assay type in all cases: binding
RPL24 = target: T1, RPL24 (Homo sapiens, UniProt P83731); settings: 100 μM LDE, 60 min; peptide C*ESAFLSK
T1 construct: directly in native proteomes; endogenous in cells; host or cells: MDA-MB-231
Protocol: (§1) Here, we envisioned that isoTOP-ABPP could be advanced to discover and quantify reactions between cysteines in proteomes and any electrophilic compound. In this advanced, ‘competitive’ version of isoTOP-ABPP (FIG. 1a), a proteome is treated with an electrophile (experimental sample) or DMSO (control sample). Both proteomic samples are then labeled with the IA probe and conjugated by CuAAC to light and heavy azide-biotin tags, respectively. The light and heavy samples are then mixed and subjected to our described isoTOP-ABPP protocol for enrichment, identification, and quantification of IA-labeled cysteines^30. Electrophile-modified cysteines are quantified by measuring the MS1 chromatographic peak ratios (R values) for heavy (DMSO-treated) over light (electrophile-treated) samples, with higher R values reflecting greater sensitivity to the electrophile. In this format, competitive isoTOP-ABPP can assay electrophiles against 1000+ cysteines in parallel directly in native proteomes without requiring any chemical modification to the electrophiles themselves.
(§2) Competitive isoTOP-ABPP experiments were performed in quadruplicate using the soluble proteome of the human breast cancer cell line MDA-MB-231 cell line. Proteomes were treated with 100 μM HNE, 15d-PGJ2, or 2-HD, for 60 minutes, followed by the IA-probe (100 μM, 60 min) A total of ˜1400 cysteine reactivities were quantified across the aggregate data set, with at least 900 cysteine reactivities quantified for each LDE (FIG. 2a) more than 750 of which were quantified for all the three electrophiles.
(§3) HNE was purchased from EMD biosciences, 15d-PGJ2 was purchased from Cayman Chemicals and 2-HD was purchased from Santa Cruz Biotechnology. Proteome samples were diluted to a 4 mg protein/mL solution in PBS. For each profiling experiment, one aliquot of the proteome sample (0.5 mL) was treated with 100 μM of LDE using 5 μL of a 10 mM stock and the other aliquot was treated with 5 μL of either ethanol (for HNE and 15d-PGJ2) or DMSO (for 2-HD) as control. For the concentration-dependent profiling experiments using HNE, aliquots of the proteomes (0.5 mL each) were treated with 5, 10, 50, 100 and 500 μM of HNE using 5 μL of 0.5, 1.0, 5, 10 and 50 mM of stock solution, respectively. After 60 minutes of treatment at room temperature, both the LDE-treated and control aliquots were passed through a NAP-5 Sephadex column (GE healthcare) to remove any unreacted LDE. The volume of each aliquot was increased to 1 mL with the concentration at 2 mg/mL after this step.
(§4) Each of the control and LDE-treated proteome samples (˜2 mg protein/mL in 1 mL volume) was treated with 100 μM of IA-probe using 10 μL of a 10 mM stock in DMSO. The labeling reactions were incubated at room temperature for 1 hour. Click chemistry (acetylene-azide cycloaddition) was performed by the addition of 100 μM of either the Heavy-TEV-Tag (for the control sample) or Light-TEV-Tag (for the LDE-treated sample) (20 μL of a 5 mM stock), 1 mM TCEP (fresh 50× stock in water), 100 μM ligand (17× stock in DMSO:t-Butanol 1:4) and 1 mM CuSO4 (50× stock in water). Samples were allowed to react at room temperature for 1 hour. After the click chemistry step, the light and heavy-labeled samples were mixed together and centrifuged (5900×g, 4 min, 4° C.) to pellet the precipitated proteins.
(§5) The pellets were washed twice in cold MeOH, after which the pellet was solubilized in PBS containing 1.2% SDS via sonication and heating (5 min, 80° C.). Samples were subjected to streptavidin enrichment of probe-labeled proteins, sequential on-bead trypsin and TEV digestion, and liquid chromatography-mass spectrometry (LC-MS) analysis according to the published isoTOP-ABPP protocol^30.
(§6) IA-probe labeled peptides were identified by SEQUEST2 and DTASelect3, and the quantification of heavy/light ratios (isoTOP-ABPP ratios, R) was performed by an in-house software (CIMAGE) as previously described. […]

CHRAC1 = target: T2, CHRAC1 (Homo sapiens, UniProt Q9NRG0); settings: 100 μM LDE, 60 min; peptide ATELFVQC*LATYSYR
T2 construct: directly in native proteomes; endogenous in cells; host or cells: MDA-MB-231
T2 sequence (Q9NRG0 1-131): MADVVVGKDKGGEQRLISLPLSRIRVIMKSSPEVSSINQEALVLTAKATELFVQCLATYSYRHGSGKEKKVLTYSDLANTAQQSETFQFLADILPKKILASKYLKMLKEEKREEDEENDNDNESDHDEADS
Protocol: as §1, §2, §3, §4, §5, §6

CKAP4 = target: T3, CKAP4 (Homo sapiens, UniProt Q07065); settings: 100 μM LDE, 60 min; peptide SSSSSSASAAAAAAAASSSASC*SR
T3 construct: directly in native proteomes; endogenous in cells; host or cells: MDA-MB-231
T3 sequence (Q07065 1-602): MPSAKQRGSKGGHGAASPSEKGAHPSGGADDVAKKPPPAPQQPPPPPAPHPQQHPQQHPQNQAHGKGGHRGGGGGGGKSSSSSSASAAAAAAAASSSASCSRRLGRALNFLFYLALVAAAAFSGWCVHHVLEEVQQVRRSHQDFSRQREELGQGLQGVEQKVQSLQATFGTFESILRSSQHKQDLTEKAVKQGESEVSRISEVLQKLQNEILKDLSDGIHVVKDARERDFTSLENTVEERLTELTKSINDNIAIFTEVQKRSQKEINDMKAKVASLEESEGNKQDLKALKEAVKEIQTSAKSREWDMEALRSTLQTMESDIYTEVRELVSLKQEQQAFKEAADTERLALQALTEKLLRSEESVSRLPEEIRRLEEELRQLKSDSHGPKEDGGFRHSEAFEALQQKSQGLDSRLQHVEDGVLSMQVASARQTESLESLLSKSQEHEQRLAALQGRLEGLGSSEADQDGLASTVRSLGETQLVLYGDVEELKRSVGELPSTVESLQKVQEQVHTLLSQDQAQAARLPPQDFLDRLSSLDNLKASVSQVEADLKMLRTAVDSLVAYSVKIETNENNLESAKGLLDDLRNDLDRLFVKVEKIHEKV
Protocol: as §1, §2, §3, §4, §5, §6

CCCCCCCCCCCCC/C=C/C=O [2-HD, 2-trans-hexadecenal]
R value (isoTOP-ABPP ratio heavy/light) for IA-labeled cysteine of RPL24 (RPL24): 1.25 | R value (isoTOP-ABPP ratio heavy/light) for IA-labeled cysteine of CHRAC1 (CHRAC1): 1.06 | R value (isoTOP-ABPP ratio heavy/light) for IA-labeled cysteine of CKAP4 (CKAP4): 1.08

CCCCCC(O)/C=C/C=O (stereo not drawn) [4-HNE, 4-Hydroxynonenal]
R value (isoTOP-ABPP ratio heavy/light) for IA-labeled cysteine of RPL24 (RPL24): 1.74 | R value (isoTOP-ABPP ratio heavy/light) for IA-labeled cysteine of CHRAC1 (CHRAC1): 1.94 | R value (isoTOP-ABPP ratio heavy/light) for IA-labeled cysteine of CKAP4 (CKAP4): 7.73

CCCCC/C=C/C=C1/C(=O)C=C[C@@H]1C/C=C\CCCC(=O)O [PGJ2, 15-deoxy-Δ12,14-prostaglandin J2]
R value (isoTOP-ABPP ratio heavy/light) for IA-labeled cysteine of RPL24 (RPL24): 6.78 | R value (isoTOP-ABPP ratio heavy/light) for IA-labeled cysteine of CHRAC1 (CHRAC1): 12.32 | R value (isoTOP-ABPP ratio heavy/light) for IA-labeled cysteine of CKAP4 (CKAP4): 3.33
